In BigSolDB 2.1:

Settings: in n-hexane

| Compound | solubility (mole fraction) (293.15 K) | solubility (mole fraction) (298.15 K) | solubility (mole fraction) (303.15 K) | solubility (mole fraction) (310.15 K) | solubility (mole fraction) (315.15 K) |
| --- | --- | --- | --- | --- | --- |
| COc1ccc(NC2=NCCC3(CCCCC3)S2)cc1 | 0.000149 | 0.000182 | 0.000221 | 0.000295 | 0.000357 |
| Clc1ccc(NC2=NCCC3(CCCCC3)S2)cc1 | 6.09e-05 | 7.93e-05 | 0.000101 | 0.000136 | 0.00017 |
| Brc1ccc(NC2=NCCC3(CCCCC3)S2)cc1 | 2.46e-05 | 3.31e-05 | 4.34e-05 | 6.54e-05 | 8.27e-05 |
| Cc1ccc(NC2=NCCC3(CCCCC3)S2)cc1 | 0.00028 | 0.000326 | 0.000379 | 0.000445 | 0.00052 |
| Cc1ccc(NC2=NCCC3(CCCCC3)S2)cc1Cl | 8.6e-06 | 1.15e-05 | 1.48e-05 | 2.15e-05 | 2.68e-05 |
| FC(F)(F)c1ccc(NC2=NCCC3(CCCCC3)S2)cc1 | 0.000214 | 0.000272 | 0.000345 | 0.000424 | 0.00057 |
| O=C(NC1=NCCC2(CCCCC2)S1)c1ccccc1 | 0.000124 | 0.000153 | 0.000189 | 0.00025 | 0.000295 |
| CC(=O)c1ccc(NC2=NCCC3(CCCCC3)S2)cc1 | 1.56e-05 | 1.93e-05 | 2.42e-05 | 3.23e-05 | 3.95e-05 |
| CCc1ccc(NC2=NCCC3(CCCCC3)S2)cc1 | 0.000365 | 0.000431 | 0.000508 | 0.000617 | 0.000885 |
| CC(C)c1ccc(NC2=NCCC3(CCCCC3)S2)cc1 | 0.000514 | 0.00061 | 0.000742 | 0.000919 | 0.0011 |
| c1ccc(NC2=NCCC3(CCCCC3)S2)cc1 | 0.00115 | 0.0013 | 0.00148 | 0.0019 | 0.00215 |
